Patent US20190351029A1, “MODULATION OF ISCHEMIC CELL BIOENERGETICS” (East Carolina University, priority 2017, published 2019)
Structures can show the parent of a compound that is named as a salt.

Assays:
[1] = system: endothelial (HUVEC) cells; assay: AAV-mediated expression of PFKFB3 in endothelial cells; type: cell-based, human; details: HUVEC on Matrigel; PFKFB3 inhibited
Text: To begin examining the therapeutic potential of PFKFB3 in PAD, an AAV vector was generated to deliver PFKFB3 cloning the PFKFB3 coding sequence into an AAV2 ITR vector with expression driven by the ubiquitous cytomegalovirus promoter (CMV) promoter. AAV-PFKFB3 or control virus (AAV-DJ-GFP) was delivered to muscle (primary mouse myoblast) and endothelial (HUVEC) cells at a multiplicity of infection (MOI) of 10,000.

hypoxic cell growth = assay: High-throughput hypoxic cell growth assays; type: cell-based
Text: In some embodiments, the presently disclosed subject matter relates to the discovery that genetically or pharmacologically enhancing glycolytic metabolism is protective against hypoxia/ischemia. Particularly, in accordance with some embodiments of the presently disclosed subject matter, it has been uncovered that elevated expression of the enzyme 6-phosphofructo-2-kinase/fructose-2,6-bisphosphatase 3 (PFKFB3), a potent allosteric activator of glycolysis, prevents ischemic injury and improves cell survival, while small molecular inhibition of PFKFB3 severely exacerbates ischemic injury. Thus, in some embodiments, the genetic target is PFKFB3. […] The compounds include, for example, metform in, phenformin, biperiden hydrochloride, clemastine, meclizine, berberine chloride, vinpocetine, pimozide, and mefloquine.
Many Food and Drug Administration (FDA) approved drugs and other chemical compounds have off-target effects on cellular metabolism, including the ability to enhance glycolytic metabolism. Cardiomyoblast (H9c2; obtained from ATCC) cells were treated with a number of compounds (berberine, clofoctol, phenformin, metformin, pentamidine, clemastine, pimoxide, bisacodyl, meclizine, mefloquine, papaverine, flunarizine, biperiden, vinpocetine, and niclosamide) at a final concentration of 1 μM prior to experimental hypoxia for 72 hours. […] Human kidney fibroblast cells were also treated with the compound prior to experimental hypoxia. […] In addition, primary mouse cortical neurons were treated with the compounds prior to experimental ischemia.

Structure (SMILES) | effect on enhanced tube formation of AAV-DJ-PFKFB3 treated endothelial cells [1] | cell growth/survival in hypoxia (hypoxic cell growth)
O=C(C=Cc1ccc2ccccc2n1)c1ccncc1 [PFK15, 1-(4-pyridinyl)-3-(2-quinolinyl)-2-propen-1-one] | abolished | –
COc1ccc2cc3[n+](cc2c1OC)CCc1cc2c(cc1-3)OCO2 [berberine chloride] | – | improve cell growth/survival in hypoxia
OC(CCN1CCCCC1)(c1ccccc1)C1CC2C=CC1C2 (stereo not drawn) [biperiden hydrochloride] | – | improve cell growth/survival in hypoxia
CN1CCC[C@@H]1CCO[C@](C)(c1ccccc1)c1ccc(Cl)cc1 [clemastine] | – | improve cell growth/survival in hypoxia
Cc1cccc(CN2CCN(C(c3ccccc3)c3ccc(Cl)cc3)CC2)c1 (stereo not drawn) [meclizine] | – | improve cell growth/survival in hypoxia
OC(c1cc(C(F)(F)F)nc2c(C(F)(F)F)cccc12)C1CCCCN1 (stereo not drawn) [mefloquine] | – | improve cell growth/survival in hypoxia
CN(C)C(=N)N=C(N)N [metform in, metformin] | – | improve cell growth/survival in hypoxia
[H]/N=C(/N)N/C(=N/[H])NCCc1ccccc1 [phenformin] | – | improve cell growth/survival in hypoxia
CCOC(=O)C1=C[C@]2(CC)CCCN3CCc4c(n1c1ccccc41)[C@@H]32 [vinpocetine] | – | improve cell growth/survival in hypoxia
